Experimental data from patent publication USRE33906E, “Cyclic carboxamide derivatives and their use as analgesics” (Dr.Lo.Zambeletti S.p.A., priority 1985, dated 1992).
Structures can show the parent of a compound that is named as a salt. Where two headings read alike, the source gives them in different places.

How the values were obtained:
[1] = system: mice (reaction time under heat source); experiment: Mouse Tail-flick test; assay type: in vivo, mouse (Male Charles River); settings: sc, 0.5 h; for responders at 1 mg/kg: 1 mg Kg^-1, Table 3, read-out: Mouse tail flick % Protection
Description: Mouse Tail-flick test (Modified from the procedure published by D'Amour et al., J. Pharm. Exptl. Ther. 72, 74/1941)
Male Charles River mice, average weight 26 g, are used. Selection is carried out before beginning of experiments: only mice whose reaction time is less than 8 sec are used. They are randomly distributed into groups of 10 and dosed with compounds under test, with positive and negative controls being included.
Compounds under test are administered subcutaneously in isotonic saline in a volume of 20 ml. Kg^-1. 30 min later mice are placed again under heat source (Socrel apparatus) and reaction time is recorded.
The analgestic activity of the test compound is expressed as the percent number of mice doubling the initial time within a group. [formula]

[2] = system: mice (p-phenylquinone writhing); experiment: Mouse p-phenylquinone Writhing test; assay type: in vivo, mouse (Male Charles River); settings: sc, Table 2
Description: Mouse p-phenylquinone Writhing test (According to Siegmund et al., Proc. Soc. Exptl. Biol. 95, 729/1957)
Male Charles River mice, average weight 26 g, are randomly distributed into group of 10 and are dosed subcutaneously with compounds under test, dissolved in isotonic saline (20 ml.Kg^-1). The experiments are carried out in the presence of positive and negative controls. 20 min after the mince are injected intraperitoneally with p-phenylquinone 0.02%, 10 ml. Kg^-1, maintained at 37° C. in a water bath. The mice are placed in a perspex compartmented observation box and observed for a period of 8 min after injection of p-phenylquinone. The dose-response curve is obtained by basing observation on the all or none response.

[3] = target: T1, K receptor (Kappa opioid receptor) (Cavia porcellus, UniProt P41144); experiment: Radio receptor binding to K sites (tritiated Ethylketocyclazocine); design: species or system guinea pig; settings: for remaining activity at 1 µM: 40 min, 10^-6 M, read-out: Opiate receptor binding K, % residual specific binding at 10^-6 M
T1 construct: fresh guinea pig brain homogenate; from tissue; host or cells: guinea pig whole brain without cerebellum, homogenate
T1 sequence (P41144 whole entry): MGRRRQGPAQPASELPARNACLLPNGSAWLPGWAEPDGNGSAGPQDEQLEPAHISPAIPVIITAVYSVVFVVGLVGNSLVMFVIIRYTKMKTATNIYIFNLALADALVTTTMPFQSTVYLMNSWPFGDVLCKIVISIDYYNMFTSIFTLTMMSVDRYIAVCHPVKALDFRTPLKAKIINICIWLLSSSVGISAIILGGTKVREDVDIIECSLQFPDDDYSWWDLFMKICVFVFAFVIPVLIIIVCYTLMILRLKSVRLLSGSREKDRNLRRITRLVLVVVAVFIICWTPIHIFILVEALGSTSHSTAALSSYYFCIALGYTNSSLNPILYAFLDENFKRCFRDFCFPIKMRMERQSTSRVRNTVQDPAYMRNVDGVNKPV
Description: (§1) RECEPTOR AFFINITY STUDY Tissue preparation
(§2) Radio receptor binding to μ and K sites is performed on fresh guinea pig brain homogenate prepared according to Kosterlitz (1981).
(§3) Whole brain without cerebellum is homogenized in 50 mM, Tris-buffer (pH 7.4 at 0° C.) and centrifuged at 49,000×g×10 min.
(§4) The pellet is then resuspended in the same buffer, incubated at 37° C. for 45 min. and centrifuged again.
(§5) 1.9 ml of the final homogenate (1:100 in Tris-pH 7.4, 0° C.) is used for the binding assay.
Binding to K sites (Magnan J., 1982)
The binding of tritiated Ethylketocyclazocine to brain homogenate is measured the in presence of 100 nanomolar D-Ala-D-LeuEnkephalin (DADLE) and 100 nanomolar DAGO, added to saturate the δ and μ opioid receptors respectively.
Final homogenate with solutions of the cold ligand and of the labelled ligand is incubated for 40 min. at 25° C., filtered through Whatman GF/C glass filter discs and washed.
The radioactivity bound to the filters is counted by liquid scintillation spectrophotometry.
MR 2266.500 nM is utilized to determine the saturable binding.
(§6) For the calculation of the kinetic parameters of the binding of labelled and unlabelled ligands, the equilibrium dissociation constant (KD), the inhibition constant (Ki) and the maximum number of binding sites (B max) are determined from saturation curves and competition experiments (Hill 1910; Scatchard 1949; Cheng and Prusoff 1973; Gillan et al. 1980).
(§7) A concentration of radioligand near KD is used in the binding assays evaluating our compounds.

[4] = target: μ receptor (Cavia porcellus, UniProt A0ACM8Q262); experiment: Radio receptor binding to μ sites (3H-DAGO)
Chain of μ receptor (A0ACM8Q262 1-400): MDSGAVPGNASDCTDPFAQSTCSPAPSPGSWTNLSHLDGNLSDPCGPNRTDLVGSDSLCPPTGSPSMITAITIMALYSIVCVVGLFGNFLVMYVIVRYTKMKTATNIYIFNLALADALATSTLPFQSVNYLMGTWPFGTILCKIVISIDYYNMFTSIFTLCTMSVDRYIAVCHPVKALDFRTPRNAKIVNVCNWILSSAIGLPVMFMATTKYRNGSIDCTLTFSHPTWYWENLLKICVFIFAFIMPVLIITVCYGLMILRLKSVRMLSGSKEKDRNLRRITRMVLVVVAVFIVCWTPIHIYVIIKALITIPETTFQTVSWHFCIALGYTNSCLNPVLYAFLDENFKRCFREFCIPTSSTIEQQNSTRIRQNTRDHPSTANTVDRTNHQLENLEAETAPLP
Description: as §1, §2, §3, §4, §5
Binding to μ sites (Magnan J., 1982)
^3 H [D-Ala^2, MePhe^4, Gly-ol^5 ] Enkephalin (^3 H-DAGO), an enkephalin analogue that binds selectively to μ receptor, is added to the biological substrate and incubated at 25° C. for 40 min., filtered through Whatman GF-C and washed with ice-cold Tris-buffer.
The filters are then dryed, solubilized in Filtercount and the radioactivity monitored. Non specific binding is determined in the presence of 10^-6 M Naloxone.
as §6, §7

[5] = system: mice (reaction time under heat source); experiment: Mouse Tail-flick test; assay type: in vivo, mouse (Male Charles River); settings: oral (os), Table 3
[6] = s.c., 30 min after dosing, Table 2, read-out: Mouse tail flick ED50
[7] = read-out: Receptor binding μ Ki, guinea pig brain homogenate, Table 2
[8] = guinea pig brain homogenate, Table 3
[9] = subcutaneous, Table 3, read-out: Mouse tail flick subcutaneous ED50

| SMILES | responders at 1 mg/kg ([1]; subcutaneous) | ED50 [2] | ED50 [1, 6] | Ki [3] | remaining activity at 1 µM [3, 8] | also measured |
| --- | --- | --- | --- | --- | --- | --- |
| CCC(C(=O)N1CCCCC1CN1CCCC1)c1ccccc1 (single isomer, unassigned; isomer b) [Example 16, 1-(2-phenylbutyroil)-2-(1pyrrolidinylmethyl) piperidine hydrochloride. Isomer B] | 40% | – | – | – | – | – |
| O=C(Cc1ccc(Cl)c(Cl)c1)N1CCCCC1CN1CCCC1 (centres unmarked) [Example 1, 1-(3,4-dichlorophenyl)acetyl-2-(1-pyrrolidinyl)methyl piperidine hydrochloride] | – | 0.2 mg/kg | 0.11 mg/kg | – | – | Ki ([3]; guinea pig brain homogenate, tritiated Ethylketocyclazocine with DADLE and DAGO 100 nM each, Table 2, read-out: Receptor binding K Ki): 1.83 nM; Ki [4, 7]: 1860 nM |
| CN(C)CC1CCCCN1C(=O)Cc1ccc(Cl)c(Cl)c1 (centres unmarked) [Example 2, 1-(3,4-dichlorophenyl)acetyl-2-dimethylaminomethyl piperidine hydrochloride] | – | 0.65 mg/kg | 0.36 mg/kg | 8.21 nM | – | Ki ([4]; guinea pig brain homogenate, Table 2, read-out: Receptor binding μ Ki): 3730 nM |
| O=C(Cc1ccc(Cl)c(Cl)c1)N1CCCC[C@@H]1CN1CCCC1 [Example 3, (2R)-1-(3,4-dichlorophenylacetyl)-2-(1-pyrrolidinylmethyl)piperidine hydrochloride hydrate] | – | 12.4 mg/kg | 17.5 mg/kg | 62.1 nM | – | Ki [4, 7]: 7110 nM |
| O=C(Cc1ccc(Cl)c(Cl)c1)N1CCCC[C@H]1CN1CCCC1 [Example 4, (2S)-1-(3,4-dichlorophenylacetyl)-2-(1-pyrrolidinylmethyl)piperidine hydrochloride hydrate] | – | 0.12 mg/kg | 0.055 mg/kg | 0.77 nM | – | Ki [4, 7]: 1560 nM |
| CN(C)C[C@@H]1CCCCN1C(=O)Cc1ccc(Cl)c(Cl)c1 [Example 5, (2S)-1-(3,4-dichlorophenylacetyl)-2-dimethylamino methylpiperidine sesquihydrate] | – | 0.44 mg/kg | 1.03 mg/kg | 5.01 nM | – | Ki [4, 7]: > 1 nM |
| O=C(Cc1ccc(Cl)c(Cl)c1)N1CCCCCC1CN1CCCC1 (centres unmarked) [Example 8, 1-(3,4-dichlorophenylacetyl)-2-(1-pyrrolidinylmethyl)-hexahydroazepine hydrochloride] | – | – | 8.76 mg/kg | 6.51 nM | – | – |
| O=C(Cc1ccccc1)N1CCCCC1CN1CCCC1 (centres unmarked) [Example 10, 1-phenylacetyl-2-(1-pyrrolidinylmethyl)piperidine hydrochloride] | 40% | – | – | – | 100% | – |
| Cc1ccc(CC(=O)N2CCCCC2CN2CCCC2)cc1C (centres unmarked) [Example 11, 1-(3,4-dimethylphenylacetyl)-2-(1-pyrrolidinylmethyl) piperidine hydrochloride] | 60% | – | – | – | 67% | – |
| O=C(Cc1ccc2c(c1)CCC2)N1CCCCC1CN1CCCC1 (centres unmarked) [Example 12, 1-(5-indaneacetyl)-2-(1-pyrrolidinylmethyl)piperidine hydrochloride] | 60% | – | – | – | 62% | – |
| O=C(Cc1ccc2c(c1)CCCC2)N1CCCCC1CN1CCCC1 (centres unmarked) [Example 13, 1-(6-tetralylacetyl)-2-(1-pyrrolidinylmethyl)piperidine hydrochloride] | 80% | – | – | – | – | Ki ([3]; guinea pig brain homogenate, tritiated Ethylketocyclazocine, Table 3, read-out: Opiate receptor binding K Ki): 5.72 nM; ED50 [1, 9]: 45 mg/kg; Ki ([4]; read-out: Opiate receptor binding μ Ki, guinea pig brain homogenate, Table 3): 500 nM; ED50 [5]: 3.91 mg/kg |
| O=C(Cc1ccc(Cl)cc1)N1CCCCC1CN1CCCC1 (centres unmarked) [Example 14, 1-(4-chlorophenylacetyl)-2-(1-pyrrolidinylmethyl) piperidine hydrochloride] | 40% | – | – | – | 61% | – |
| COc1ccc(CC(=O)N2CCCCC2CN2CCCC2)cc1OC (centres unmarked) [Example 15, 1-(3-4-dimethoxyphenylacetyl)-2-(1-pyrrolidinylmethyl) piperidine hydrochloride] | 40% | – | – | – | 100% | – |
| O=C(COc1ccc(Cl)cc1)N1CCCCC1CN1CCCC1 (centres unmarked) [Example 17, 1-(4-chlorophenoxyacetyl)-2-(1-pyrrolidinylmethyl) piperidine hydrochloride] | 80% | – | – | 9.54 nM | – | ED50 [1, 9]: 91 mg/kg |
